Experimental data as given in PubChem BioAssay (NCI).
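Protocol summary: plate cells (96-well), add compound at 5 concentrations, incubate 48 h, interpolate endpoints linearly. TGI marks complete inhibition of growth.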

Tests used:
Assay in all cases: NCI-60 cell line screen, 48 h
LOX IMVI melanoma = tested on: LOX IMVI melanoma
SW-620 colon = tested on: SW-620 colon
HT29 colon = tested on: HT29 colon
NCI-H226 lung = tested on: NCI-H226 lung
SNB-75 CNS = tested on: SNB-75 CNS
M19-MEL melanoma = tested on: M19-MEL melanoma
SK-MEL-5 melanoma = tested on: SK-MEL-5 melanoma
OVCAR-8 ovarian = tested on: OVCAR-8 ovarian
SNB-19 CNS = tested on: SNB-19 CNS
NCI-H23 lung = tested on: NCI-H23 lung
IGROV1 ovarian = tested on: IGROV1 ovarian
COLO 205 colon = tested on: COLO 205 colon
MOLT-4 leukemia = tested on: MOLT-4 leukemia
HCC-2998 colon = tested on: HCC-2998 colon
A498 renal = tested on: A498 renal
NCI-H460 lung = tested on: NCI-H460 lung
BT-549 breast = tested on: BT-549 breast
NCI/ADR-RES ovarian = tested on: NCI/ADR-RES ovarian
MDA-MB-435 = tested on: MDA-MB-435
PC-3 prostate = tested on: PC-3 prostate

Measured: TGI

CN(C)CCC(=O)c1ccccc1
> 74 µM: NCI-H23 lung
> 71 µM: SNB-75 CNS | IGROV1 ovarian
> 67.3 µM: HT29 colon
57.8 µM: LOX IMVI melanoma
> 56.9 µM: SK-MEL-5 melanoma
52.7 µM: M19-MEL melanoma
> 57.2 µM: COLO 205 colon
98.4 µM: NCI-H226 lung
> 71.9 µM: OVCAR-8 ovarian
> 69.6 µM: HCC-2998 colon
> 73.5 µM: NCI-H460 lung
59.9 µM: MOLT-4 leukemia
32.4 µM: SW-620 colon
> 100 µM: SNB-19 CNS
> 95.5 µM: A498 renal

Cc1ccccc1N1C(=O)C2C=CC(n3[nH]c(=O)n(Cc4ccccc4)c3=O)CC2C1=O (centres undefined)
not listed: BT-549 breast | NCI/ADR-RES ovarian | MDA-MB-435 | PC-3 prostate
> 100 µM: all other assays above

CCCNC(=S)NNC(=O)CSc1nc(-c2ccccc2)c(-c2ccccc2)[nH]1
62.1 µM: SK-MEL-5 melanoma
61.7 µM: MOLT-4 leukemia
not listed: HCC-2998 colon | BT-549 breast | NCI/ADR-RES ovarian | MDA-MB-435 | PC-3 prostate
> 100 µM: all other assays above

CN=C1CC2c3cc(OC)c(OC)cc3CCN2C2=C1C(=O)CC(C)(C)C2 (centres undefined)
not listed: IGROV1 ovarian | BT-549 breast | NCI/ADR-RES ovarian | MDA-MB-435 | PC-3 prostate
> 100 µM: all other assays above

N#Cc1c2ccccc2cn1-c1ccc(F)cc1
61.7 µM: COLO 205 colon
90.5 µM: MOLT-4 leukemia
55.6 µM: NCI-H226 lung
> 100 µM: SW-620 colon | HT29 colon | M19-MEL melanoma | SNB-19 CNS | IGROV1 ovarian | HCC-2998 colon | NCI-H460 lung
18.9 µM: SNB-75 CNS
56.2 µM: NCI-H23 lung

S=c1sc2c(Cl)nc(Cl)nc2n1-c1ccccc1
32.9 µM: NCI-H23 lung
29.9 µM: M19-MEL melanoma
33.6 µM: IGROV1 ovarian
68.1 µM: SW-620 colon
not listed: BT-549 breast | NCI/ADR-RES ovarian | MDA-MB-435 | PC-3 prostate
> 100 µM: all other assays above

Cc1cc2oc(=N)c(C#N)c(C)c2cc1C
79.8 µM: SNB-75 CNS
33.2 µM: MOLT-4 leukemia
not listed: M19-MEL melanoma
> 100 µM: all other assays above
